In PMC10786919, “Design-rules for stapled peptides with in vivo activity and their application to Mdm2/X antagonists” (Nature Communications, 2024):
Read-outs that look alike come from different tables or passages of the source. Positions of bridges follow the written chain, without caps; N, C: chain ends. Non-standard residues stand in square brackets, D forms with d. Residues, ends and D or L forms follow the SMILES beside them. R8 = C=CCCCCCC[C@@](C)(N)C(=O)O; R5 = C=CCCC[C@@](C)(N)C(=O)O; S5 = C=CCCC[C@](C)(N)C(=O)O; Ahx = NCCCCCC(=O)O

How the values were obtained:
Format in all cases: cell-based
[1] = system: p53 responsive β-lactamase reporter in HCT116 cells; test: cells; details: 0% FBS 4Hr
Procedure: HCT116 cells were stably transfected with a p53 responsive β-lactamase reporter and expanded in McCoy’s 5 A Medium with 10% fetal bovine serum (FBS), Blasticidin, and Penicillin/Streptomycin and then transferred to 1.5 ml freezing vials and stored under liquid nitrogen in growth media containing 5% DMSO. […] The cells were then seeded into a 384-well plate at a density of 8000 cells per well. […] The final working concentration of DMSO was 0.5%. β-lactamase activity was detected using the ToxBLAzer Dual Screen (Invitrogen), as per the manufacturer’s instructions. Measurements were made using the Envision multiplate reader (Perkin–Elmer). […] Measurements were taken a minimum of three times (biological replicates) and values are reported as geometric means of the replicates.

[2] = Lactate dehydrogenase (LDH) release assay; details: LDH: Cytotoxicity assay EC50
How it was run: (§1)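 HCT116 cells stably carrying a p53-responsive β-lactamase reporter were seeded at 8000 cells per well with a final DMSO level of 0.5%. Membrane integrity was assessed by lactate dehydrogenase release using a homogeneous fluorometric kit. Values are geometric means of at least three biological replicates.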

HCT116 cells = test: Lactate dehydrogenase (LDH) release assay
How it was run: as §1

[3] = read-out: p53 reporter assay EC50
[4] = read-out: p53 reporter assay: EC50

SMILES | EC50 [1, 3] | EC50 [2] | LDH: Cytotoxicity assay % Effect (HCT116 cells) | EC50 [1, 4]
CC(=O)N[C@@H](CCCNC(=N)N)C(=O)N[C@@H](CCCNC(=N)N)C(=O)NCCCCCC(=O)N[C@H](C(=O)N[C@@H](CO)C(=O)N[C@@H](Cc1ccccc1)C(=O)N[C@]1(C)CCCCCCC=CCCC[C@@](C)(C(=O)N[C@@H](CCC(=O)O)C(=O)N[C@@H](CC(N)=O)C(=O)N[C@@H](Cc2ccccc2)C(N)=O)NC(=O)[C@H](CC(C)C)NC(=O)[C@H](CC(C)C)NC(=O)[C@H](C)NC(=O)[C@H](Cc2c[nH]c3ccccc23)NC(=O)[C@H](Cc2ccc(O)cc2)NC(=O)[C@H](CCC(=O)O)NC1=O)[C@@H](C)O [MP-037] (Ac-RR[Ahx]TSF[R8]EYWALL[S5]ENF-NH2; staple 7-14) | 20.2 µM | > 50 µM | 3.464% | –
CC(=O)N[C@H](C(=O)N[C@@H](CO)C(=O)N[C@@H](CC(C)C)C(=O)N[C@]1(C)CCCCCCC=CCCC[C@@](C)(C(N)=O)NC(=O)[C@H](Cc2c[nH]c3ccccc23)NC(=O)[C@H](CC(C)C)NC(=O)[C@H](C)NC(=O)[C@H](Cc2ccccc2)NC(=O)[C@H](Cc2ccc(O)cc2)NC(=O)[C@H](CCC(=O)O)NC1=O)[C@@H](C)O [MP-2040] (Ac-TSL[R8]EYFALW[S5]-NH2; staple 4-11) | 7.46 µM | > 50 µM | 24.89% | –
CC(=O)N1CCC[C@H]1C(=O)N[C@@H](CCCNC(=N)N)C(=O)N[C@@H](Cc1ccccc1)C(=O)N[C@]1(C)CCCCCCC=CCCC[C@@](C)(C(=O)N[C@@H](CCC(=O)O)C(N)=O)NC(=O)[C@H](CC(C)C)NC(=O)[C@H](CCCNC(=N)N)NC(=O)[C@H](Cc2ccc(O)cc2)NC(=O)[C@H](Cc2c[nH]c3ccccc23)NC(=O)[C@H](Cc2ccc(O)cc2)NC(=O)[C@H](CCC(=O)O)NC1=O [MP-2030] (Ac-PRF[R8]EYWYRL[S5]E-NH2; staple 4-11) | 6.62 µM | > 50 µM | 32.25% | –
CC(=O)N[C@H](C(=O)N[C@@H](CO)C(=O)N[C@@H](Cc1ccccc1)C(=O)N[C@]1(C)CCCCCCC=CCCC[C@@](C)(C(=O)N[C@@H](CCC(N)=O)C(=O)N[C@@H](CC(N)=O)C(=O)N[C@@H](Cc2ccccc2)C(N)=O)NC(=O)[C@H](CC(C)C)NC(=O)[C@H](CC(C)C)NC(=O)[C@H](C)NC(=O)[C@H](Cc2c[nH]c3ccccc23)NC(=O)[C@H](Cc2ccc(O)cc2)NC(=O)[C@H](CCC(=O)O)NC1=O)[C@@H](C)O [MP-2026] | 0.98 µM | > 50 µM | 23.2% | –
CC(=O)N[C@H](C(=O)N[C@@H](CO)C(=O)N[C@@H](Cc1ccccc1)C(=O)N[C@]1(C)CCCCCCC=CCCC[C@@](C)(C(N)=O)NC(=O)[C@H](CC(C)C)NC(=O)[C@H](CCCCN)NC(=O)[C@H](CC(C)C)NC(=O)[C@H](Cc2c[nH]c3ccccc23)NC(=O)[C@H](Cc2ccc(O)cc2)NC(=O)[C@H](CCC(=O)O)NC1=O)[C@@H](C)O [MP-034] (Ac-TSF[R8]EYWLKL[S5]-NH2; staple 4-11) | 12.8 µM | > 50 µM | 3.672% | –
CC(=O)N[C@@H](CCCNC(=N)N)C(=O)NCCCCCC(=O)N[C@H](C(=O)N[C@@H](CO)C(=O)N[C@@H](Cc1ccccc1)C(=O)N[C@]1(C)CCCCCCC=CCCC[C@@](C)(C(=O)N[C@@H](CCC(=O)O)C(=O)N[C@@H](CC(N)=O)C(=O)N[C@@H](Cc2ccccc2)C(N)=O)NC(=O)[C@H](CC(C)C)NC(=O)[C@H](CC(C)C)NC(=O)[C@H](C)NC(=O)[C@H](Cc2c[nH]c3ccccc23)NC(=O)[C@H](Cc2ccc(O)cc2)NC(=O)[C@H](CCC(=O)O)NC1=O)[C@@H](C)O [MP-038] | 2.49 µM | > 50 µM | 5.515% | –
CC(=O)N1CCC[C@H]1C(=O)N[C@@H](CCCNC(=N)N)C(=O)N[C@@H](Cc1ccccc1)C(=O)N[C@]1(C)CCCCCCC=CCCC[C@@](C)(C(N)=O)NC(=O)[C@H](CC(C)C)NC(=O)[C@H](CCCNC(=N)N)NC(=O)[C@H](CC(C)C)NC(=O)[C@H](Cc2c[nH]c3ccccc23)NC(=O)[C@H](Cc2ccc(O)cc2)NC(=O)[C@H](CCC(=O)O)NC1=O [MP-031] (Ac-PRF[R8]EYWLRL[S5]-NH2; staple 4-11) | 32.4 µM | > 50 µM | -3.388% | –
CC(=O)N[C@H](C(=O)N[C@@H](CO)C(=O)N[C@@H](Cc1ccccc1)C(=O)N[C@]1(C)CCCCCCC=CCCC[C@@](C)(C(=O)N[C@H](CCC(=O)O)C(=O)N[C@@H](CC(N)=O)C(=O)N[C@@H](Cc2ccccc2)C(N)=O)NC(=O)[C@H](CC(C)C)NC(=O)[C@H](CC(C)C)NC(=O)[C@H](C)NC(=O)[C@H](Cc2c[nH]c3ccccc23)NC(=O)[C@H](Cc2ccc(O)cc2)NC(=O)[C@H](CCC(=O)O)NC1=O)[C@@H](C)O [MP-092] | – | – | – | 6.33 µM
CC(=O)N[C@@H](CCCCN)C(=O)N[C@@H](CCCCN)C(=O)N[C@@H](CO)C(=O)NCC(=O)N[C@@H](CO)C(=O)NCC(=O)N[C@H](C(=O)N[C@@H](CO)C(=O)N[C@@H](Cc1ccccc1)C(=O)N[C@]1(C)CCCCCCC=CCCC[C@@](C)(C(=O)N[C@@H](CCC(=O)O)C(=O)N[C@@H](CC(N)=O)C(=O)N[C@@H](Cc2ccccc2)C(N)=O)NC(=O)[C@H](CC(C)C)NC(=O)[C@H](CC(C)C)NC(=O)[C@H](C)NC(=O)[C@H](Cc2c[nH]c3ccccc23)NC(=O)[C@H](Cc2ccc(O)cc2)NC(=O)[C@H](CCC(=O)O)NC1=O)[C@@H](C)O [MP-052] (Ac-KKSGSGTSF[R8]EYWALL[S5]ENF-NH2; staple 10-17) | 12.9 µM | – | – | –
CC(=O)N[C@H](C(=O)N[C@@H](CO)C(=O)N[C@@H](Cc1ccccc1)C(=O)N[C@]1(C)CCCC=CCCC[C@](C)(C(=O)N[C@@H](CC(C)C)C(=O)N[C@@H](CC(C)C)C(=O)N[C@@H](CO)C(=O)N[C@@H](CCC(=O)O)C(=O)N[C@@H](CC(N)=O)C(N)=O)NC(=O)[C@H](Cc2c[nH]c3ccccc23)NC(=O)[C@H](Cc2ccc(O)cc2)NC(=O)[C@H](CCC(=O)O)NC1=O)[C@@H](C)O [MP-2087] (Ac-TSF[R5]EYW[R5]LLSEN-NH2; staple 4-8) | – | – | – | 24.7 µM
CC(=O)N[C@@H](CCCCN)C(=O)N[C@@H](CCCCN)C(=O)N[C@@H](CCCCN)C(=O)NCCCCCC(=O)N[C@H](C(=O)N[C@@H](CO)C(=O)N[C@@H](CC(C)C)C(=O)N[C@]1(C)CCCCCCC=CCCC[C@@](C)(C(=O)N[C@@H](CCC(=O)O)C(=O)N[C@@H](CC(N)=O)C(=O)N[C@@H](Cc2ccccc2)C(N)=O)NC(=O)[C@H](Cc2c[nH]c3ccccc23)NC(=O)[C@H](CC(C)C)NC(=O)[C@H](C)NC(=O)[C@H](Cc2ccccc2)NC(=O)[C@H](Cc2ccc(O)cc2)NC(=O)[C@H](CCC(=O)O)NC1=O)[C@@H](C)O [MP-075] (Ac-KKK[Ahx]TSL[R8]EYFALW[S5]ENF-NH2; staple 8-15) | – | – | – | > 50 µM
CC(=O)N[C@H](C(=O)N[C@@H](CO)C(=O)N[C@@H](Cc1ccccc1)C(=O)N[C@]1(C)CCCCCC/C=C\CCC[C@@](C)(C(N)=O)NC(=O)[C@H](CC(C)C)NC(=O)[C@H](CC(C)C)NC(=O)[C@H](C)NC(=O)[C@H](Cc2c[nH]c3ccccc23)NC(=O)[C@H](Cc2ccc(O)cc2)NC(=O)[C@H](CCC(=O)O)NC1=O)[C@@H](C)O [MP-2090] | – | – | – | 5.78 µM
CC(=O)N[C@@H](CCCCN)C(=O)NCCCCCC(=O)N[C@H](C(=O)N[C@@H](CO)C(=O)N[C@@H](Cc1ccccc1)C(=O)N[C@]1(C)CCCCCC/C=C\CCC[C@@](C)(C(=O)N[C@@H](CCC(=O)O)C(=O)N[C@@H](CC(N)=O)C(=O)N[C@@H](Cc2ccccc2)C(N)=O)NC(=O)[C@H](CC(C)C)NC(=O)[C@H](CC(C)C)NC(=O)[C@H](C)NC(=O)[C@H](Cc2c[nH]c3ccccc23)NC(=O)[C@H](Cc2ccc(O)cc2)NC(=O)[C@H](CCC(=O)O)NC1=O)[C@@H](C)O [MP-2094] | – | – | – | 6.49 µM
